Earlier results in patent publication EP3124016B1, “ANTIPSORIATIC EMULSION COMPOSITION COMPRISING CEFAZOLIN” (Warszawski Uniwersytet Medyczny, priority 2015, dated 2017).
Structures can show the parent of a compound that is named as a salt.

Details: 1% aqueous solution

time for which eye drops were stable (stored at 4°C): 42 days
time for which stability lasted (eye drops, storage in room temperature): only for a few days
SMILES: Cc1nnc(SCC2=C(C(=O)O)N3C(=O)[C@@H](NC(=O)Cn4cnnn4)[C@H]3SC2)s1 [cefazolin sodium salt]
